Measurements reported in paper PMC6715688, “Mycobacterial dynamin-like protein IniA mediates membrane fission” (Nature Communications, 2019).

Key:
[1] = target: IniA (Mycolicibacterium smegmatis, UniProt I7FE16); assay: isothermal titration calorimetry; format: binding
[2] = target: IniA (Mycolicibacterium smegmatis, UniProt I7FE16, K73A); assay: isothermal titration calorimetry; format: binding
Description: isothermal titration calorimetry on IniA | showing only a twofold reduction in affinity for GMPPNP or GTP | the mutant IniA largely maintained interactions with GDP

Sequence of IniA (Mycolicibacterium smegmatis, UniProt I7FE16, K73A) (I7FE16 entry or part of it K73A): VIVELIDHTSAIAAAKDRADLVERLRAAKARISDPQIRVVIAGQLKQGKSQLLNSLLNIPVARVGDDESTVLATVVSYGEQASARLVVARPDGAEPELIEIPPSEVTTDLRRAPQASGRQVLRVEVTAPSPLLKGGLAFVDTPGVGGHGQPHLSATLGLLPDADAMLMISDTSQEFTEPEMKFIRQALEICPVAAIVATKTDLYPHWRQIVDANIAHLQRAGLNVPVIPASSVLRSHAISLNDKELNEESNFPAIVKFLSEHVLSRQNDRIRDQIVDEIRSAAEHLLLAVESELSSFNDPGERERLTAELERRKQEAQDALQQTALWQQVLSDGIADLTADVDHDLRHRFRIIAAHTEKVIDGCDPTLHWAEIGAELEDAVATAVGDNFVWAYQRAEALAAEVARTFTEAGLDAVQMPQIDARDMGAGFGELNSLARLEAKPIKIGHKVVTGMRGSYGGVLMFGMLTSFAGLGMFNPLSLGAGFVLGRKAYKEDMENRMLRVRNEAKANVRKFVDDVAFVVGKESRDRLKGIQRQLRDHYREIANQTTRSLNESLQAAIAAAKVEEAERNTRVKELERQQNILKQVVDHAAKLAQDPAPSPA
Sequence of IniA (Mycolicibacterium smegmatis, UniProt I7FE16) (I7FE16 entry or part of it): as the sequence (I7FE16 entry or part of it K73A) above

SMILES | Kd [1] | Kd [2]
Nc1nc2c(ncn2[C@@H]2O[C@H](COP(=O)(O)OP(=O)(O)O)[C@@H](O)[C@H]2O)c(=O)[nH]1 [GDP] | 750 nM | ~1060 nM
Nc1nc2c(ncn2[C@@H]2O[C@H](COP(=O)(O)OP(=O)(O)OP(=O)(O)O)[C@@H](O)[C@H]2O)c(=O)[nH]1 [GTP] | 740 nM | ~1430 nM
Nc1nc2c(ncn2[C@@H]2O[C@H](COP(=O)(O)OP(=O)(O)NP(=O)(O)O)[C@@H](O)[C@H]2O)c(=O)[nH]1 [GMPPNP] | 9010 nM | ~23200 nM
